Molecules are shown by their SMILES.

The test system of this experiment is P. falciparum 3D7 growth, pLDH absorbance. Nature of the experiment: P. falciparum 3D7 growth inhibition, dose response, strain 3D7 (AID 2305).

The compound `Cc1ccc(F)c(C(=O)Nc2cccc(-c3nn4ccccc4c3-c3ccnc(Nc4cccc(F)c4)n3)c2)c1F` showed an IC50 of 1050 nM. Compound `CNCc1ccc(-c2ccc3ccnc(N)c3c2)cc1` yielded an IC50 of 260 nM.

In turn, `CCc1cn(C)c2c(N3CCCC3=O)cc(C(=O)N[C@@H](Cc3ccccc3)[C@H](O)CNC(C)(C)c3cccc(C(F)(F)F)c3)cc12` had an IC50 of 110 nM. For the compound `CN1CCN(c2ccc(-c3nc4c(C(N)=O)c(OCc5cc(Cl)cc(Cl)c5)ccc4[nH]3)cc2)CC1`, the IC50 is 660 nM. The value for `COCCn1c(-c2nc(-c3ccc(F)cc3)cnc2N)nc2ccccc21` was 870 nM. The value for `COc1ccc2nccc([C@@H](O)CN3CC[C@H](NCc4cnc5c(c4)NC(=O)CS5)[C@H](F)C3)c2c1` was 770 nM; that for `CN1CCN(CCCCCCNc2c3ccccc3nc3ccccc23)CC1` was 720 nM. Turning to `CC(=O)Nc1ccc(C(=O)Nc2cccc(-c3ccc(-c4nc5ccc(F)cc5[nH]4)cc3)c2)cn1`, the IC50 was 170 nM. `CCCCN(CCCC)CC(O)c1cc(-c2ccc(Cl)cc2)nc2c(Cl)cc(Cl)cc12` (stereo not given) showed an IC50 of 30 nM. To `COc1ccc(Nc2nccc(N3CCC(NC(=O)c4cccc(C#N)c4)C3)n2)cc1` (stereo not given) belongs 820 nM; to `CC(=O)Nc1ncc(C(=O)Nc2cccc(-c3ccc(-c4nc5ccc(C(F)(F)F)cc5[nH]4)s3)c2)s1`, 400 nM; to `Oc1c(C(Nc2ccccn2)c2ccc(Cl)cc2Cl)ccc2cccnc12` (stereo not given), 890 nM.

Regarding `COc1ccc(NC(=O)NC2CCN(CCCCCNC(=O)/C=C/c3ccc(Cl)c(Cl)c3)CC2)cc1`, the IC50 is 1010 nM.

In turn, `O=C(Nc1cccc(C(F)(F)F)c1)Nc1ccc(F)c([N+](=O)[O-])c1` yielded an IC50 of 700 nM. In turn, `Cc1cc2nc(-c3ccc(C(=O)NCCCc4ccccc4)cc3)[nH]c2cc1C` showed an IC50 of 1180 nM. The compound `CCN(CC)CCN(Cc1ccc(-c2ccc(C(F)(F)F)cc2)cc1)C(=O)Cn1cc(CCCc2cccc(F)c2F)c(=O)c2ccccc21` yielded an IC50 of 1060 nM.

On to `COc1ccc2nccc(CCN3C[C@H](CNCc4ccc5c(n4)NC(=O)CS5)[C@H](O)C3)c2n1`, for which the IC50 turned out to be 1460 nM.

With `COc1ccc(NC(=O)Nc2ccc(-c3cccc(-c4nc5ccccc5[nH]4)c3)cc2)cc1`, the IC50 was found to be 760 nM. `CC(C)CCNc1nc(NCCCc2ccccc2)c2cc(O)ccc2n1` showed an IC50 of 170 nM. For `O=C(c1ccc(F)c(F)c1)N1CCOC(CCN2CCC(c3ccccc3)CC2)(c2ccc(Cl)c(Cl)c2)C1` (stereo not given), the IC50 was 1040 nM.

`CS(=O)(=O)Cc1ccc(Nc2nccc(N3CCCc4cc(NC(=O)Nc5cccc(C(F)(F)F)c5)ccc43)n2)cc1` showed an IC50 of 150 nM. Compound `Cc1nc(-c2nc(NCCc3cnccn3)ncc2-c2ccsc2)sc1C` gave an IC50 of 880 nM. As to `COc1ccc2nccc([C@@H](O)CN3CCC(NCc4cc5ccccc5cn4)CC3)c2n1`, the IC50 was found to be 920 nM. With `CC1CC(NCCCNc2cc(=O)c3ccccc3[nH]2)c2c(Cl)c(Cl)cc(Cl)c21` (stereo not given), the IC50 came to 980 nM. The value for `Cn1ccnc1CCC(=O)Nc1ccc(Cl)cc1C(=O)Nc1ccc(Cl)cc1` was 1560 nM.

Compound `Cn1c(Nc2cc(C(C)(C)C)on2)nc2cc(Nc3ccnc(Nc4cccc(S(=O)(=O)N5CCOCC5)c4)n3)ccc21` returned an IC50 of 530 nM. To `COc1ccc(NC(=O)/C=C/c2ccccc2Cl)cc1OCCN1CCC(N2CCN(C)CC2)CC1` belongs 490 nM; to `CC(C)CCN(Cc1cncn1Cc1cccc(C(F)(F)F)c1)C(=O)c1ccccc1C#N`, 610 nM.

The compound `CC(=O)Nc1ccc(S(=O)(=O)Nc2c(C)cc(Cc3cnc(N)nc3N)cc2C)cc1` displayed an IC50 of 1000 nM.

`Oc1ccc(CCNc2nc(NCCCOc3cccc(-c4ccccc4)c3)nc(N3CCNCC3)n2)cc1`: the IC50 amounted to 1130 nM. The value for `CCOC(=O)c1ccc(NC(=O)N[C@@H](Cc2ccccc2)C(=O)NC2CCN(Cc3ccc(O)c(OC)c3)C2)cc1` (stereo not given in full) was 990 nM; that for `COc1ccc(C2CC(c3cccs3)=NN2C(=O)c2ccccc2)cc1OC` (stereo not given) was 660 nM; that for `O=C(N1CCN(c2cccc(C(F)(F)F)c2)CC1)C(Cl)(Cl)Cl` was 890 nM. `O=C(Nc1cccc(C(F)(F)F)c1)c1cccc(S(=O)(=O)NCC2CCCN(Cc3ccccc3)C2)c1` (stereo not given): the IC50 is 1100 nM. Turning to `O=c1cc(NCCCNCc2cccc(Oc3ccccc3)c2)[nH]c2ccccc12`, the IC50 came out at 950 nM. `C#CCN(Cc1cc2c(=O)[nH]c(N)nc2cc1C)c1ccc(C(=O)N[C@@H](CCC(=O)O)C(=O)O)cc1` showed an IC50 of 630 nM. The value for `CC(C)N1CCN(C(=O)c2ccc(CN(C)CCCN3CCN(c4cccc(Cl)c4Cl)CC3)s2)CC1` was 990 nM; that for `O=C(NCC1CCN(Cc2ccsc2)C1)c1cc(-c2cccc(C(F)(F)F)c2)cs1` (stereo not given) was 700 nM. In turn, `CC(=NNC(=S)NCCc1ccccc1)c1ccccn1` registered an IC50 of 220 nM. The value for `COc1ccc([N+](=O)[O-])cc1N(Cc1ccccc1-c1ccccc1)S(=O)(=O)c1ccc(C(F)(F)F)cc1[N+](=O)[O-]` was 1050 nM; that for `COc1ccc2ncc(Cl)c(N3CCC(CCNCc4ccc5c(n4)NC(=O)CS5)CC3)c2c1` was 960 nM; that for `CC(C)CC(NC(=O)c1ccc(F)cc1)C(=O)N[C@H](/C=N/N1CCNC1=O)CC(C)C` (stereo not given in full) was 1030 nM. The value for `O=[N+]([O-])c1ccc(Oc2ccccc2CNCC2CCN(CC3CCCCC3)CC2)cc1` was 900 nM; that for `CCOc1ccc(-c2cc3nc(C4CCNCC4)c(C(=O)Nc4ccc(C)cc4Cl)cn3n2)cc1` was 920 nM; that for `CC1(C)N=C(N)N=C(N)N1OCCSCCON1C(N)=NC(N)=NC1(C)C` was 50 nM.

The compound `Cn1c(NC(=O)C2CCCN(C(=O)c3ccc(O)c(-c4ccc(Cl)c(Cl)c4)c3)C2)nc2ccccc21` (stereo not given) had an IC50 of 750 nM. With `COc1ccc2nccc([C@@H](O)CN3CCC(NCc4ccc5c(c4)NC(=O)CS5)CC3)c2c1`, the IC50 worked out at 570 nM. The value for `NC1CCCN(Cc2ccc(-c3ccc(-c4nc5ccccc5[nH]4)s3)cc2)C1` (stereo not given) was 670 nM; that for `N#Cc1ccc(NC(=O)c2ccc(Cc3ccc4c(c3)CCN(C3CCC3)CC4)cn2)cc1` was 1120 nM. Compound `O=C(N[C@@H](CC1CCCCC1)C(=O)NC1CCCCC1)c1ccc(O)c(-c2cccc(C(F)(F)F)c2)c1` showed an IC50 of 750 nM. The value for `CCc1nnc2sc(-c3cccc(NC(=O)c4ccc(C)c([N+](=O)[O-])c4)c3)nn12` was 1410 nM.

The compound `CCCC1CCNC(C(O)c2ccnc3ccc(OC)cc23)C1` (stereo not given) showed an IC50 of 430 nM. The compound `COCCn1c(SC(C)C(=O)Nc2cc(C(F)(F)F)ccc2Cl)nc2ccccc2c1=O` (stereo not given) had an IC50 of 630 nM. To `O=C(/C=C/c1ccc(Cl)c(Cl)c1)N1CCC(CN2CC[C@H](c3c[nH]c4ccccc34)[C@@H](O)C2)CC1` belongs 810 nM; to `N#Cc1ccc(-c2ccc(C(=O)NCCCCN3CCC(c4ccc5c(c4OCc4ccncc4)CCCC5)CC3)cc2)cc1`, 760 nM; to `Cc1ccc(C(=O)Nc2cccc([N+](=O)[O-])c2)cc1S(=O)(=O)N1CC(C)CC(C)C1` (stereo not given), 790 nM. Take `Nc1nc(N)c2cc(C(F)(F)F)ccc2n1`: the IC50 was 1130 nM. Compound `COc1cc(CC2c3cc(O)c(Cl)cc3CCN2C)c(OC)cc1C` (stereo not given) registered an IC50 of 710 nM. In turn, `C=Cc1sc(CNCCCNc2cc(=O)c3ccccc3[nH]2)c(C)c1Br` returned an IC50 of 1050 nM. In the case of `CCCCN1CCN(CCCCNc2c3ccccc3nc3ccccc23)CC1`, the IC50 was 170 nM.

What is called IC50 is the concentration that gives 50% inhibition. Read a high IC50 as weaker potency in that assay.

For the origin of these results see PubChem BioAssay AID2305 (GlaxoSmithKline (GSK), 2010).
